Data from patent publication US9144239B2, “Macrocyclic picolinamides as fungicides” (DOW AGROSCIENCES LLC, priority 2012, dated 2015).
Read-outs that look alike come from different tables or passages of the source.

How the values were obtained:
Assay type in all cases: in vivo
Cercospora beticola = test: Fungicidal activity: leaf spot of sugar beets (CERCBE); conditions: 24 h, 1 Day Protectant, sugar beet, read-out: Disease Control CERCBE 1DP
Description: Technical grades of materials were dissolved in acetone, which were then mixed with nine volumes of water containing 110 ppm Triton X-100. The fungicide solutions were applied onto wheat seedlings using an automated booth sprayer to run-off. All sprayed plants were allowed to air dry prior to further handling. Wheat plants (variety Yuma) were grown from seed in a greenhouse in 50% mineral soil/50% soil-less Metro mix until the first leaf was fully emerged, with 7-10 seedlings per pot. These plants were inoculated with an aqueous spore suspension of Septoria tritici either prior to or after fungicide treatments. After inoculation the plants were kept in 100% relative humidity (one day in a dark dew chamber followed by two to three days in a lighted dew chamber at 20° C.) to permit spores to germinate and infect the leaf. The plants were then transferred to a greenhouse set at 20° C. for disease to develop. When disease symptoms were fully expressed on the 1st leaves of untreated plants, infection levels were assessed on a scale of 0 to 100 percent disease severity. Percent disease control was calculated using the ratio of disease severity on treated plants relative to untreated plants. Evaluation of Fungicidal Activity: Leaf Spot of Sugar Beets (Cercospora beticola; Bayer Code CERCBE) Sugar beet plants (variety HH88) were grown in soil-less Metro mix and trimmed regularly to maintain a uniform plant size prior to test. Plants were inoculated with a spore suspension 24 hr after fungicide treatments. Inoculated plants were kept in a dew chamber at 22° C. for 48 hr then incubated in a greenhouse set at 24° C. under a clear plastic hood with bottom ventilation until disease symptoms were fully expressed. Fungicide formulation, application and disease assessment on the sprayed leaves followed the procedures as described in the Example A.

Phakopsora pachyrhizi = test: Fungicidal activity: Asian soybean rust (PHAKPA); conditions: 25 ppm; for Disease Control PHAKPA 1DP: 1 Day Protectant; for Disease Control PHAKPA 3DC: 3 Day Curative
Description: Evaluation of Fungicidal Activity: Asian Soybean Rust (Phakopsora pachyrhizi; Bayer Code […]) Technical grades of materials were dissolved in acetone, which were then mixed with nine volumes of water containing 0.011% Tween 20. The fungicide solutions were applied onto soybean seedlings using an automated booth sprayer to run-off. All sprayed plants were allowed to air dry prior to further handling. Soybean plants (variety Williams 82) were grown in soil-less Metro mix, with one plant per pot. Two weeks old seedlings were used for testing. […] Plants were incubated for 24 h in a dark dew room at 22° C. and 100% RH then transferred to a growth room at 23° C. for disease to develop. Disease severity was assessed on the sprayed leaves.

[1] = tested on: Puccinia triticina; synonym: Puccinia recondita f. sp. tritici; test: Fungicide mobility (dropline mobility test): wheat brown rust (PUCCRT); conditions: 1 ug/leaf
Method in brief: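 A 2 μl drop of formulated compound (EC blank, 110 ppm Triton X-100 water) was applied to a line 5 cm from the tip of primary leaves of "Yuma" wheat seedlings, 6 replicates. Inoculation with PUCCRT was done 1 day after or 3 days before application. Once disease was fully expressed on controls, the acropetal disease-free zone was measured as percent of line-to-tip distance.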

Erysiphe cichoracearum = test: Fungicidal activity: powdery mildew of cucumber (ERYSCI); conditions: Golovinomyces cichoracearum, 24 h, 1 Day Protectant, read-out: Disease Control ERYSCI 1DP
Description: Technical grades of materials were dissolved in acetone, which were then mixed with nine volumes of water containing 110 ppm Triton X-100. The fungicide solutions were applied onto wheat seedlings using an automated booth sprayer to run-off. All sprayed plants were allowed to air dry prior to further handling. Wheat plants (variety Yuma) were grown from seed in a greenhouse in 50% mineral soil/50% soil-less Metro mix until the first leaf was fully emerged, with 7-10 seedlings per pot. These plants were inoculated with an aqueous spore suspension of Septoria tritici either prior to or after fungicide treatments. After inoculation the plants were kept in 100% relative humidity (one day in a dark dew chamber followed by two to three days in a lighted dew chamber at 20° C.) to permit spores to germinate and infect the leaf. The plants were then transferred to a greenhouse set at 20° C. for disease to develop. When disease symptoms were fully expressed on the 1st leaves of untreated plants, infection levels were assessed on a scale of 0 to 100 percent disease severity. Percent disease control was calculated using the ratio of disease severity on treated plants relative to untreated plants. Evaluation of Fungicidal Activity: Powdery Mildew of Cucumber (Erysiphe cichoracearum; Bayer Code […]) Cucumber seedlings (variety Bush Pickle) were grown in soil-less Metro mix, with one plant per pot, and used in the test when 12 to 14 days old. Plants were inoculated with a spore suspension 24 hr following fungicide treatments. After inoculation the plants remained in the greenhouse set at 20° C. until disease was fully expressed. Fungicide formulation, application and disease assessment on the sprayed leaves followed the procedures as described in the Example A.

Venturia inaequalis = test: Fungicidal activity: apple scab (VENTIN); conditions: 24 h, 1 Day Protectant, read-out: Disease Control VENTIN 1 DP
Description: Technical grades of materials were dissolved in acetone, which were then mixed with nine volumes of water containing 110 ppm Triton X-100. The fungicide solutions were applied onto wheat seedlings using an automated booth sprayer to run-off. All sprayed plants were allowed to air dry prior to further handling. Wheat plants (variety Yuma) were grown from seed in a greenhouse in 50% mineral soil/50% soil-less Metro mix until the first leaf was fully emerged, with 7-10 seedlings per pot. These plants were inoculated with an aqueous spore suspension of Septoria tritici either prior to or after fungicide treatments. After inoculation the plants were kept in 100% relative humidity (one day in a dark dew chamber followed by two to three days in a lighted dew chamber at 20° C.) to permit spores to germinate and infect the leaf. The plants were then transferred to a greenhouse set at 20° C. for disease to develop. When disease symptoms were fully expressed on the 1st leaves of untreated plants, infection levels were assessed on a scale of 0 to 100 percent disease severity. Percent disease control was calculated using the ratio of disease severity on treated plants relative to untreated plants. Evaluation of Fungicidal Activity: Apple Scab (Venturia inaequalis; Bayer Code […]) Apple seedlings (variety McIntosh) were grown in soil-less Metro mix, with one plant per pot. Seedlings with two expanding young leaves at the top (older leaves at bottom of the plants were trimmed) were used in the test. Plants were inoculated with a spore suspension of Venturia inaequalis 24 hr after fungicide treatment and kept in a 22° C. dew chamber with 100% RH for 48 hr, and then moved to a greenhouse set at 20° C. for disease to develop. Fungicide formulation, application and disease assessment on the sprayed leaves followed the procedures as described in the Example A.

[2] = 24 h, 1 Day Protectant Mobility, read-out: Dropline Mobility Test PUCCRT 1DPM
[3] = 72 h, 3 Day Curative Mobility, read-out: Dropline Mobility Test PUCCRT 3DCM

SMILES | pest or weed control at 100 ppm (Cercospora beticola) | Disease Control PHAKPA 1DP (Phakopsora pachyrhizi) | Disease Control PHAKPA 3DC (Phakopsora pachyrhizi) | pest or weed control at 1 µg/leaf [1, 2] | pest or weed control at 1 µg/leaf [1, 3] | pest or weed control at 100 ppm (Erysiphe cichoracearum) | pest or weed control at 100 ppm (Venturia inaequalis)
CCCO[C@H]1[C@H](C)OC(=O)[C@@H](NC(=O)c2nccc(OC)c2OCOC(C)=O)COC[C@@H]1Oc1ccccc1 [Compound 222] | 80 to 100% | A (80-100) | A (80-100) | – | – | – | –
COc1ccnc(C(=O)N[C@H]2COC[C@H](Oc3ccccc3)[C@@H](OCC(C)C)[C@H](C)OC2=O)c1OCOC(C)=O [Compound 86] | 80 to 100% | A (80-100) | A (80-100) | 80 to 100% | 0 to 80% | 0 to 80% | 0 to 80%
CCC(C)(C)O[C@H]1COC[C@H](NC(=O)c2nccc(OC)c2OCOC(C)=O)C(=O)O[C@@H](C)[C@@H]1OCC(C)C [Compound 78] | 0 to 80% | A (80-100) | – | 0 to 80% | 0 to 80% | 80 to 100% | 80 to 100%
COc1ccnc(C(=O)N[C@H]2COC[C@H](OC)[C@@H](OC)[C@H](C)OC2=O)c1OCOC(C)=O [Compound 65] | 0 to 80% | – | – | 0 to 80% | 0 to 80% | – | –
COc1ccnc(C(=O)N[C@H]2COC[C@H](OCC(C)C)[C@@H](OCC(C)C)[C@H](C)OC2=O)c1OCOC(C)=O [Compound 3, (2-((3S,7S,8S,9S)-7,8-diisobutoxy-9-methyl-2-oxo-1,5-dioxonan-3-ylcarbamoyl)-4-methoxypyridin-3-yloxy)methyl] | 80 to 100% | A (80-100) | – | 80 to 100% | 80 to 100% | 0 to 80% | 0 to 80%
COc1ccnc(C(=O)NC2COC[C@H](OCc3ccccc3)[C@@H](OCc3ccccc3)[C@H](C)OC2=O)c1OCOC(C)=O (stereo partly shown) [Compound 12] | 80 to 100% | – | – | 0 to 80% | 0 to 80% | – | 0 to 80%
CCCCO[C@H]1COC[C@H](NC(=O)c2nccc(OC)c2OCOC(C)=O)C(=O)O[C@@H](C)[C@@H]1OCC(F)F [Compound 55] | 80 to 100% | – | – | – | – | – | –
COc1ccnc(C(=O)N[C@H]2COC[C@H](OCCCC(F)(F)F)[C@@H](OCCCC(F)(F)F)[C@H](C)OC2=O)c1OCOC(C)=O [Compound 68] | 80 to 100% | – | – | 0 to 80% | 0 to 80% | 0 to 80% | 0 to 80%
COc1ccnc(C(=O)N[C@H]2COC[C@H](Oc3ccc(F)cc3)[C@@H](Oc3ccc(F)cc3)[C@H](C)OC2=O)c1OCOC(C)=O [Compound 231] | 0 to 80% | – | – | – | – | 0 to 80% | 0 to 80%
COc1ccnc(C(=O)N[C@H]2COC[C@H](OCC(C)C)[C@@H](OC3CCCCC3)[C@H](C)OC2=O)c1OCOC(C)=O [Compound 77] | 80 to 100% | B (More than 0-Less than 80) | – | 80 to 100% | 0 to 80% | 0 to 80% | 0 to 80%
COc1ccnc(C(=O)N[C@H]2COC[C@H](OC(=O)C(C)C)[C@@H](OC(=O)C(C)C)[C@H](C)OC2=O)c1OCOC(C)=O [Compound 57] | 80 to 100% | – | – | – | – | 0 to 80% | –
COc1ccnc(C(=O)N[C@H]2COC[C@H](OCC(C)C)[C@@H](OCC(C)C)[C@H](C)OC2=O)c1OCOC(=O)C(C)C [Compound 2] | 0 to 80% | – | – | 80 to 100% | 80 to 100% | 80 to 100% | –
CCCCO[C@H]1COC[C@H](NC(=O)c2nccc(OC)c2OCOC(C)=O)C(=O)O[C@@H](C)[C@@H]1OCCOC [Compound 54] | 0 to 80% | – | – | – | – | – | –
COc1ccnc(C(=O)N[C@H]2COC[C@H](Oc3ccc(F)cc3)[C@@H](Oc3ccc(F)cc3)[C@H](C)OC2=O)c1OC(C)=O [Compound 229, 2-(((3S,7S,8S,9S)-7,8-bis(4-fluorophenoxy)-9-methyl-2-oxo-1,5-dioxonan-3-yl)carbamoyl)-4-methoxypyridin-3-yl acetate] | 80 to 100% | – | – | – | – | 0 to 80% | –
CCCO[C@H]1COC[C@H](NC(=O)c2nccc(OC)c2OCOC(C)=O)C(=O)O[C@@H](C)[C@@H]1Oc1ccccc1 [Compound 221] | 80 to 100% | A (80-100) | A (80-100) | – | – | – | –
COc1ccnc(C(=O)N[C@H]2COC[C@H](Oc3ccccc3)[C@@H](Oc3ccccc3)[C@H](C)OC2=O)c1OCOC(C)=O [Compound 84] | 80 to 100% | A (80-100) | A (80-100) | 80 to 100% | – | 0 to 80% | 0 to 80%
COc1ccnc(C(=O)N[C@H]2COC[C@H](OCCCc3ccccc3)[C@@H](OCCCc3ccccc3)[C@H](C)OC2=O)c1OCOC(C)=O [Compound 60] | 80 to 100% | – | – | 0 to 80% | – | – | 0 to 80%
COc1ccnc(C(=O)N[C@H]2COC[C@H](OCC(C)C)[C@@H](Oc3ccccc3)[C@H](C)OC2=O)c1OCOC(C)=O [Compound 85] | 80 to 100% | – | – | 80 to 100% | 80 to 100% | 0 to 80% | 0 to 80%
